Assay results from patent US20080076760A1, “2,3,4,5-TETRAHYDRO-1H-1,5-BENZODIAZEPINE DERIVATIVE AND MEDICINAL COMPOSITION” (priority 2004, published 2008).
Read-outs that look alike come from different tables or passages of the source.

Assays:
[1] = molecular target: human vasopressin V1a receptor (Homo sapiens, UniProt P37288); assay: Receptor binding study, [3H]AVP displacement on CHO cell membranes, human V1a
Method: (§1) (ii) Receptor Binding Study
(§2) Assay was performed using 50 mM of Tris-HCl (pH=7.4) (total amount: 250 μL) (buffer composition: containing […] of MgCl2 and 0.1% BSA), and incubation was performed at room temperature (25° C.) for one hour. After incubation, suck filtration was immediately performed and reaction was completed when the membrane sample was collected on a glass fiber filter fitted with the microplate. After the filter was washed with an ice-cold Tris-HCl buffer (50 mM Tris-HCl, 10 mM MgCl2, pH 7.4), radioactivity measurement was performed. Nonspecific binding was determined using nonradioactive-labeled AVP (1 μM).

[2] = molecular target: human vasopressin V2 receptor (Homo sapiens, UniProt P30518); assay: Receptor binding study, [3H]AVP displacement on CHO cell membranes, human V2
human vasopressin V2 receptor, sequence (P30518 whole entry): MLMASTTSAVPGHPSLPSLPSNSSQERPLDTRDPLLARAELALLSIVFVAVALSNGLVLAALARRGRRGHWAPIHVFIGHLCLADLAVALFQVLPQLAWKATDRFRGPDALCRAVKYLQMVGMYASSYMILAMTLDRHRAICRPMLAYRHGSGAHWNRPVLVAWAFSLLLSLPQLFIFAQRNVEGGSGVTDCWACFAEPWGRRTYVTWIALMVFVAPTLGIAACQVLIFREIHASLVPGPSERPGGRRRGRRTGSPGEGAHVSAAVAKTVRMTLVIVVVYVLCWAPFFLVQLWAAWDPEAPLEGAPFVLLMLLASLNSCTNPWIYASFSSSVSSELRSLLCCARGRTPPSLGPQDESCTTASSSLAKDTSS
Method: Preparation of Chinese hamster ovary (Cho) cell which expresses human vasopressin receptor subtype and production of membrane sample of the cell was conducted according to the method of Tahara et al. (Br. J. Pharmacol., 125, 1463-1470, 1998).
as §1
as §2, with “In saturation binding experiment, the membrane sample and [^3H]AVP of several concentrations (0.125 nM to 4.0 nM) were mixed and incubated in microplate wells. In displacement experiment, [^3H]AVP of constant concentrations (0.5 nM to 1.0 nM) and the membrane sample were mixed with Compound A of several concentrations, and incubation was performed. Assay” for “Assay”

[3] = [3H]AVP displacement, CHO cell membrane, 25° C., one hour, read-out: Human V1a Ki
[4] = [3H]AVP displacement, CHO cell membrane, 25° C., one hour, read-out: Human V2 Ki

human vasopressin V1a receptor, sequence (P37288 whole entry): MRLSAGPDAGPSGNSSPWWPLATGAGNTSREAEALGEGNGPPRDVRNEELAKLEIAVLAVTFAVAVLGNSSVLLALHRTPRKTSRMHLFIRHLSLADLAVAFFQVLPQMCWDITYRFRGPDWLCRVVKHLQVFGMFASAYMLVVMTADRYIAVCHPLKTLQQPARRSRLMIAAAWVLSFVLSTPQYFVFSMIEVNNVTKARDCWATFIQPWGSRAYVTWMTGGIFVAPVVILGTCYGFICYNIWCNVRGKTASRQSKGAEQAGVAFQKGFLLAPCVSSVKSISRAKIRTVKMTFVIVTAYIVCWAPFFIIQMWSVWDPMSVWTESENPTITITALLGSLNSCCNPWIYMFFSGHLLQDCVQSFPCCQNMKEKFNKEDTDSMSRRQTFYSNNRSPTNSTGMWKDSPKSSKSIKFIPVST

Row | Compound | Ki [1, 3] [nM] | Ki [2, 4] [nM] | Ki [1] [nM] | Ki [2] [nM]
1 | CCCCCN(C)CCCOc1cc(C(=O)N2CC[C@H](C)Nc3ccccc32)ccc1-c1ccc2[nH]ccc2c1 [Example 108, N-[3-[2-(1H-indol-5-yl)-5-[[(4S)-4-methyl-2,3,4,5-tetrahydro-1H-1,5-benzodiazepin-1-yl]carbonyl]phenoxy]propyl]-N-methyl-1-pentaneamine] | 0.42 | 21 | – | –
2 | CCCN(C)CCCCOc1cc(C(=O)N2CC[C@H](C)Nc3ccccc32)ccc1-c1ccc2[nH]ccc2c1 [Example 117, N-[4-[2-(1H-indol-5-yl)-5-[[(4S)-4-methyl-2,3,4,5-tetrahydro-1H-1,5-benzodiazepin-1-yl]carbonyl]phenoxy]butyl]-N-methyl-N-propylamine] | – | – | 0.21 | 12
3 | CCCN(C)CCCOc1cc(C(=O)N2CC[C@H](C)Nc3ccccc32)ccc1-c1ccc(OC)cc1 [Example 131, N-[3-[[4′-methoxy-4-[[(4S)-4-methyl-2,3,4,5-tetrahydro-1H-1,5-benzodiazepin-1-yl]carbonyl][1,1′-biphenyl]-2-yl]oxy]propyl]-N-methyl-N-propylamine] | 0.26 | 83 | – | –
4 | C[C@H]1CCN(C(=O)c2ccc(-c3ccc4[nH]ccc4c3)c(C(=O)N3CCN(C)CC3)c2)c2ccccc2N1 [Example 102, (4S)-1-[4-(1H-indol-5-yl)-3-[(4-methyl-1-piperazinyl)carbonyl]benzoyl]-4-methyl-2,3,4,5-tetrahydro-1H-1,5-benzodiazepine] | 0.25 | 61 | – | –
5 | C[C@H]1CCN(C(=O)c2ccc(-c3ccc4[nH]ccc4c3)c(N3CCN(C)CC3)c2)c2ccccc2N1 [Example 149, (4S)-1-[4-(1H-indol-5-yl)-3-(4-methyl-1-piperazinyl)benzoyl]-4-methyl-2,3,4,5-tetrahydro-1H-1,5-benzodiazepine] | 0.29 | 1.9 | – | –
6 | CNc1ccc(-c2ccc(C(=O)N3CC[C@H](C)Nc4ccccc43)cc2OCCN2CCOCC2)cc1 [Example 74, N-methyl-4′-[[(4S)-4-methyl-2,3,4,5-tetrahydro-1H-1,5-benzodiazepin-1-yl]carbonyl]-2′-[2-(4-morpholinyl)ethoxy][1,1′-biphenyl]-4-amine] | 0.24 | 6.1 | – | –
7 | C[C@H]1CCN(C(=O)c2ccc(-c3ccc4[nH]ccc4c3)c(OCCCN3CCOC3=O)c2)c2ccccc2N1 [Example 92, 3-[3-[2-(1H-indol-5-yl)-5-[[(4S)-4-methyl-2,3,4,5-tetrahydro-1H-1,5-benzodiazepin-1-yl]carbonyl]phenoxy]propyl]-1,3-oxazolidin-2-one] | 0.21 | 5.6 | – | –
8 | C[C@H]1CCN(C(=O)c2ccc(-c3ccc4[nH]ccc4c3)c(OCCCN(C)CCN(C)C)c2)c2ccccc2N1 [Example 112, N1-[3-[2-(1H-indol-5-yl)-5-[[(4S)-4-methyl-2,3,4,5-tetrahydro-1H-1,5-benzodiazepin-1-yl)carbonyl]phenoxy]propyl]-N1,N2,N2-trimethyl-1,2-ethaneamine] | 0.42 | 23 | – | –
9 | CCCN(C)CCCCCOc1cc(C(=O)N2CC[C@H](C)Nc3ccccc32)ccc1-c1ccc2[nH]ccc2c1 [Example 126] | 0.24 | 7 | – | –
10 | CCCCN(CC)CCCOc1cc(C(=O)N2CC[C@H](C)Nc3ccccc32)ccc1-c1ccc2[nH]ccc2c1 [Example 124, N-ethyl-N-[3-[2-(1H-indol-5-yl)-5-[[(4S)-4-methyl-2,3,4,5-tetrahydro-1H-1,5-benzodiazepin-1-yl]carbonyl]phenoxy]propyl]-1-butaneamine] | 0.37 | 20 | – | –
11 | CC(C)N1CCN(CCCOc2cc(C(=O)N3CC[C@H](C)Nc4ccccc43)ccc2-c2ccc3[nH]ccc3c2)CC1 [Example 99, (4S)-1-[4-(1H-indol-5-yl)-3-[3-(4-isopropyl-1-piperazinyl)propoxy]benzoyl]-4-methyl-2,3,4,5-tetrahydro-1H-1,5-benzodiazepine] | 0.3 | 3.4 | – | –
12 | C[C@H]1CCN(C(=O)c2ccc(-c3ccc4[nH]ccc4c3)c(CN3CCOCC3)c2)c2ccccc2N1 [Example 94, (4S)-1-[4-(1H-indol-5-yl)-3-(4-morpholinylmethyl)benzoyl]-4-methyl-2,3,4,5-tetrahydro-1H-1,5-benzodiazepine] | 0.21 | 0.73 | – | –
13 | CCOC(=O)CC(=O)NCCCOc1cc(C(=O)N2CC[C@H](C)Nc3ccccc32)ccc1-c1ccc2[nH]ccc2c1 [Example 170, ethyl 3-[[3-[2-(1H-indol-5-yl)-5-[[(4S)-4-methyl-2,3,4,5-tetrahydro-1H-1,5-benzodiazepin-1-yl]carbonyl]phenoxy]propyl]amino]-3-oxopropanoate] | 0.37 | 2.6 | – | –
14 | C[C@H]1CCN(C(=O)c2ccc(-c3ccc4[nH]ccc4c3)c(C(=O)OCCCN3CCN(C)CC3)c2)c2ccccc2N1 [Example 136, 3-(4-methyl-1-piperazinyl)propyl 2-(1H-indol-5-yl)-5-[[(4S)-4-methyl-2,3,4,5-tetrahydro-1H-1,5-benzodiazepin-1-yl]carbonyl]benzoate] | 0.23 | 16 | – | –
15 | C[C@H]1CCN(C(=O)c2ccc(-c3ccc4[nH]ccc4c3)c(OCCCCN3CCN(C)CC3)c2)c2ccccc2N1 [Example 103] | 0.24 | 3.6 | – | –
16 | CCCN(C)CCCOc1cc(C(=O)N2CC[C@H](C)Nc3ccccc32)ccc1-c1ccc(NCC)cc1 [Example 129, N-ethyl-2′-[3-[methyl(propyl)amino]propoxy]-4′-[[(4S)-4-methyl-2,3,4,5-tetrahydro-1H-1,5-benzodiazepin-1-yl]carbonyl][1,1′-biphenyl]-4-amine] | 0.4 | 88 | – | –

The remaining compounds from weak to strong by Ki [1, 3], led by results:

Row | Ki [1, 3] [nM] | Ki [2, 4] [nM] | Compound | Ki [1] [nM] | Ki [2] [nM]
17 | 0.2 | 93 | C[C@H]1CCN(C(=O)c2ccc(-c3ccc4[nH]ccc4c3)c(C(=O)OCCCN(C)C)c2)c2ccccc2N1 [Example 120, 3-(dimethylamino)propyl 2-(1H-indol-5-yl)-5-[[(4S)-4-methyl-2,3,4,5-tetrahydro-1H-1,5-benzodiazepin-1-yl]carbonyl]benzoate] | – | –
18 | 0.18 | 15 | CCCN(CC)CCCOc1cc(C(=O)N2CC[C@H](C)Nc3ccccc32)ccc1-c1ccc2[nH]ccc2c1 [Example 125, N-ethyl-3-[2-(1H-indol-5-yl)-5-[[(4S)-4-methyl-2,3,4,5-tetrahydro-1H-1,5-benzodiazepin-1-yl]carbonyl]phenoxy]-N-propyl-1-propaneamine] | – | –
19 | 0.16 | 11 | C[C@H]1CCN(C(=O)c2ccc(-c3ccc4[nH]ccc4c3)c(OCCCN3CCCCC3)c2)c2ccccc2N1 [Example 71, (4S)-1-[4-(1H-indol-5-yl)-3-[3-(1-piperidinyl)propoxy]benzoyl]-4-methyl-2,3,4,5-tetrahydro-1H-1,5-benzodiazepine] | – | –
20 | 0.15 | 9.5 | CCN(C)CCCOc1cc(C(=O)N2CC[C@H](C)Nc3ccccc32)ccc1-c1ccc2[nH]ccc2c1 [Example 118, N-ethyl-3-[2-(1H-indol-5-yl)-5-[[(4S)-4-methyl-2,3,4,5-tetrahydro-1H-1,5-benzodiazepin-1-yl]carbonyl]phenoxy]-N-methyl-1-propaneamine] | – | –
21 | 0.15 | 477 | CCCN(C)CCCOc1cc(C(=O)N2CC[C@H](C)Nc3ccccc32)ccc1-c1ccc(N)cc1 [Example 164, 2′-[3-[methyl(propyl)amino]propoxy]-4′-[[(4S)-4-methyl-2,3,4,5-tetrahydro-1H-1,5-benzodiazepin-1-yl]carbonyl][1,1′-biphenyl]-4-amine] | – | –
22 | 0.13 | 33 | C[C@H]1CCN(C(=O)c2ccc(-c3ccc4[nH]ccc4c3)c(OCCCN3CCC(N4CCOCC4)CC3)c2)c2ccccc2N1 [Example 107, (4S)-1-[4-(1H-indol-5-yl)-3-[3-[4-(4-morpholinyl)-1-piperidinyl]propoxy]benzoyl]-4-methyl-2,3,4,5-tetrahydro-1H-1,5-benzodiazepine] | – | –
23 | 0.1 | 6.5 | COCCN(CCCOc1cc(C(=O)N2CC[C@H](C)Nc3ccccc32)ccc1-c1ccc2[nH]ccc2c1)CCOC [Example 84] | – | –
24 | 0.093 | 7.1 | CCN(C)CCCCOc1cc(C(=O)N2CC[C@H](C)Nc3ccccc32)ccc1-c1ccc2[nH]ccc2c1 [Example 172, N-ethyl-4-[2-(1H-indol-5-yl)-5-[[(4S)-4-methyl-2,3,4,5-tetrahydro-1H-1,5-benzodiazepin-1-yl]carbonyl]phenoxy]-N-methyl-1-butaneamine] | – | –
25 | 0.064 | 5.1 | CC1CN(CCCOc2cc(C(=O)N3CC[C@H](C)Nc4ccccc43)ccc2-c2ccc3[nH]ccc3c2)CC(C)O1 (stereo partly drawn) [Example 80, (4S)-1-[3-[3-(2,6-dimethyl-4-morpholinyl)propoxy]-4-(1H-indol-5-yl)benzoyl]-4-methyl-2,3,4,5-tetrahydro-1H-1,5-benzodiazepine] | – | –
